Measured values published in patent US7601365B2, “Synergetic effects of HGF and antibacterial treatment” (Damavand Wound, AB, priority 2000, dated 2009).
Several values for one entry are separate records, joined by “and”; a condition that tells them apart may be missing. Equal entries are not always repeated. Marks after values point to notes of the source that are not given here.

Key:
[1] = system: chronic leg ulcers; assay type: in vivo, human
Protocol: HGF in gel form was applied locally once daily for seven days in 15 of 19 chronic leg ulcers in eleven elderly patients in a pilot study. All patients had previously been treated with conventional methods and their leg ulcers had been in a rather stable condition for between one and fourteen years. Any signs of allergy, discomfort or pain were reported daily.
(§1) Micro-circulation perfusion in ulcers compared to the intact contiguous skin was determined at the beginning, after one week and after three months (in 7 patients) and ulcer size and characteristics were also documented.
In contrast to the patients with unfavourable healing (non-responders) the healing process in the responders began during treatment and continued afterwards. There was a statistically significant correlation (r=0.94, p<0.002) between enhanced micro-circulation and ulcer area reduction in the treated ulcers. Simultaneously antibacterial treatment in the ulcers with signs of infection enhanced the therapy results considerably. […] Micro-circulatory perfusion, which might reflect the angiogenic effect of HGF, was positively correlated to ulcer area reduction. Local treatment by HGF seems to have positive effect on nearby, not locally treated, ulcers indicating systemic effects. […] HGF and representative antibacterial treatment have synergetic effects in treatment of chronic leg ulcers.

[2] = system: chronic leg ulcers; test: Micro-circulatory perfusion in ulcers by laser Doppler (LDPI); assay type: in vivo, human
Protocol: The micro-circulation within the ulcers was measured using LDPI. The LDPI system (PIMLO, Lisca Development AB, Sweden) utilises the Doppler principle by freely impinging coherent laser light onto the tissue and processing the backscattered, Doppler broadened, light to estimate the tissue perfusion without touching the skin. The perfusion estimate is proportional to the product of the mean velocity and the concentration of the moving blood cells.
as §1

[3] = system: normal hairless skin in mice; test: Local rhHGF on shaved normal hairless skin in mice, hair growth; assay type: in vivo
Protocol: Eighteen black mice (14-16 weeks old and 21-29 g weight) were shaved on their back, causing two 1×1 cm patches on the right and left side. They were then divided into 3 groups. Group I (n=6, females), Group 2 (n=6 males) and Group 3 (n=6, 3 males and 3 females). Group 1 were treated locally on the right side by 0.70 μg/kg (12-18 ng/cm^2 hairless skin) recombinant human hepatocyte growth factor (rhHGF) daily in 10 days. In order to prepare HGF preparations, recombinant human HGF (rhHGF) was provided commercially from R&D systems Inc., Minneapolis, USA. Group 2 (n=6 males) received 0.35 μg/kg/day (5-10 ng/cm^2 hairless skin) on the right side in 10 days. Group 3, non-treated, served as the control group. […] Although some significant differences were not obviously seen in the hair growth under treatment we were surprised to see that the animals in Group 1 did show a full double-sided hair growth in 5 animals 2 days after the treatment was ended (day 12). The same process in Group 2 and group 3 did take much a longer time (day 20 and day 21, respectively).

[4] = system: spontaneous fungal infections and ulcers; test: Mice with spontaneous fungal infections and ulcers, Gentiana violet with or without rhHGF; assay type: in vivo; conditions: local Gentiana violet once; the HGF mouse also rhHGF 10 ng subcutaneously
Protocol: Two mice (23-25 g) with spontaneous fungal infections and ulcers on their backs were shaved and treated locally with Gentiana violet once. One of them was simultaneously treated with hepatocyte growth factor (rhHGF) 10 ng subcutaneously. The hair growth was fine as in the other places of body, in the mouse that received HGF and fungicidal treatment. […] This example confirms the morphogenic effects of HGF in recovering after treated infectious injuries (see FIG. 7).

[5] = system: CCL-53.1; test: Restitution of scraped confluent monolayer; assay type: cell-based
Protocol: The confluent monolayer of CCL-53.1 was scraped off, forming long wounds. The area not covered by cells finally disappeared, and restitution (in control medium with 15% horse serum and 2.5 % FBS) was completed at 72 h. The addition of HGF together with the addition of antibiotic agent (streptomycin and penicillin) to the culture medium improved the restitution of the damaged area more rapidly than the control medium (10 times at 24 h) as well as to a medium including HGF without added antibiotic agents.

[6] = system: human skin fibroblasts; conditions: more than 1.0 ng/ml of HGF added to cultures media; cited from earlier work
[7] = contiguous non-treated ulcer in a locally treated patient, up to three months

## HGF: recombinant human HGF (rhHGF) provided commercially from R&D systems Inc., Minneapolis, USA
[1]; 11 patients
  Heal % (T), median: 84%
[1]; [7]
  Heal % (NT), first listed non-treated ulcer: 100/100% and 100%
  Heal % (NT), second listed non-treated ulcer: 100/100% and 92%
[1]; human, in vivo
  Signs of allergy or malignancy: No signs of allergy or malignancy were observed
[1]; local HGF treatment, ulcers incurable for up to fourteen years
  Patients with complete or partial healing: 8/11
[1]; local HGF with appropriate oral antibiotics at the same time
  Cases with complete cure of ulcers: at least 4 cases
[1]; non-treated ulcers
  Heal % (NT), mean, first listed ulcer: 100%
  Heal % (NT), mean, second listed ulcer: 96%
  Heal % (NT), median, first listed ulcer: 100%
  Heal % (NT), median, second listed ulcer: 96%
[1]; one patient with venous insufficiency, no appropriate antibiotics (penicillin allergy)
  Course of ulcer after superinfection with resistant bacteria: the ulcer increased dramatically in size
[1]; patient 7
  Heal % (T), the two ulcers of patient 7 with different healing: (59-88%)♦
[1]; sum of total area reduction divided by sum of total area, 11 patients
  Heal % (T), mean: 78* %
[1]; treated ulcers
  Ulcers with favourable healing (58-59%): two
[1]; treated ulcers, in four patients
  Ulcers with excellent healing (84-99%): four
[1]; treated ulcers, in three patients
  Ulcers with complete healing (100% area reduction): 5/15
[1]; treated ulcers, three patients
  Ulcers with minimal improvement (25-30%) or relapse: four
[1]; two patients
  Healing of the four contiguous non-treated ulcers: three healed completely and one excellent
[2]; non-treated ulcers
  Circ (NT) ratio, mean: 0.9/ND ratio
  Circ (NT) ratio, median: 0.9/ND ratio
[2]; treated ulcers
  Circ (T) ratio, mean: 1.12 ratio
  Circ (T) ratio, median: 1.23 ratio
[2]; treated ulcers, before treatment vs one week later, one line per patient
  Circ (T) ratio: relative change in local microcirculation: 1.29 ratio and 1.23 ratio and 1.28 ratio and 0.77 ratio and 0.72 ratio and 0.97 ratio and 1.48 ratio
[3]; 0.70 or 0.35 μg/kg/day locally, 10 days
  Signs of non-tolerance or diseases under or after treatment: None of the treated animals did show any sign of non-tolerance or diseases
[3]; Group 1: 0.70 μg/kg locally daily in 10 days, in 5 animals
  Day of full double-sided hair growth: 12 days
[3]; Group 2: 0.35 μg/kg/day locally in 10 days
  Day of full double-sided hair growth: 20 days
[3]; normal hairless skin in mice
  Local dose that accelerates hair growth: not less than 0.7 μg/kg
[4]
  Quality of hair growth: fine
[5]; HGF together with streptomycin and penicillin in the culture medium, at 24 h
  Restitution of the damaged area relative to control medium: 10 times
[5]; dose-dependent effect
  HGF concentration at which the effect is detectable: ≥ 5 ng/mL
[6]
  DNA synthesis: doubled

## CN(C)c1ccc(C(=C2C=CC(=[N+](C)C)C=C2)c2ccc(N(C)C)cc2)cc1.[Cl-] [Gentiana violet, reference compound]
[4]
  Quality of hair growth: rough and irregular
